Experimental findings from patent EP4699605A1, “USE OF NOVEL COMPOUND FOR TREATING INTRACTABLE DISEASES” (YJ Cerapeutics Inc., priority 2023, dated 2024) are described below.

Structures are written as SMILES.

In one assay the test system is bladder wall. The experiment in a line: Bladder hypertrophy (H&E) and collagen content in bladder muscle (Masson's trichrome) after spinal cord injury. Type of assay: in vivo, Sprague-Dawley rats. An excerpt:
As one indicator of bladder dysfunction, bladder hypertrophy, which was a thicker bladder wall, and changes in collagen content in the bladder muscle were identified. Specifically, a spinal cord injury […] animal model was perfused through the left ventricle, and fixed with 4% paraformaldehyde, and the bladder was extracted, and then embedded in an optimal cutting temperature (OCT) compound, and the tissue was sectioned at a 10 µm thickness using a cryostat. In order to measure the bladder wall thickness, Hematoxylene & Eosin (Abcam) staining was performed according to a manufacturer's protocol, and in order to measure the collagen content in the muscle, Masson's trichrome (Sigma-Aldrich) staining was performed.

For a further assay, the system named is JMJD3. Briefly: Signaling pathway analysis in SNI model (Western blot): JMJD3 expression and activation. Type of assay: in vivo, Sprague-Dawley rats. Particulars: 4 weeks after nerve injury. How it is done: (§1) To determine through which signaling pathway YJ102 inhibited a neuroinflammatory response, there was analyzed increased expression and activation of histone demethylase JMJD3 and expression changes of factors associated with JAK/STAT3 pathway, mTOR pathway, and TRPM7-mediated pathway, which were known as important regulatory mechanisms and epigenetic regulators mediating the neuroinflammatory response, in the tissues of the SNI animal model 4 weeks after nerve injury.
(In western blotting, separated proteins are transferred to a membrane and probed.)

The test system of a further assay is TRPM7. Briefly: Signaling pathway analysis in SNI model (Western blot): TRPM7 expression. The class given is in vivo, Sprague-Dawley rats. Particulars: 4 weeks after nerve injury. How it is done: as §1
For a further assay, the system named is mTOR pathway. Briefly: Signaling pathway analysis in SNI model (Western blot): mTOR. To be noted: 4 weeks after nerve injury. Type of assay: in vivo, Sprague-Dawley rats. The method, then:
as §1

Another assay concerns JAK/STAT3 pathway. Briefly: Signaling pathway analysis in SNI model (Western blot): JAK/STAT3. Type of assay: in vivo, Sprague-Dawley rats. To be noted: 4 weeks after nerve injury. The method, then:
as §1

In another assay the test system is ZO-1 and occludin. Briefly: Urothelial tight junction proteins in bladder after SCI (Western blot, immunofluorescence). The class given is in vivo, Sprague-Dawley rats. From the text: When bladder dysfunction occurred due to spinal cord injury, cystitis, etc., a decrease in tight junction protein in the urothelium in contact with urine occurred, which increased the permeability of the bladder wall to introduce the harmful substances into the tissue, and caused the death of the urothelium serving as a barrier, and an increase in inflammatory response in the bladder. In order to determine what effect the compound YJ102 of the present disclosure had on these pathological processes, the expression of tight junction proteins ZO-1 and occludin was confirmed by Western blot analysis and immunofluorescence staining, and the introduction of neutrophils and macrophages into the bladder was confirmed by immunofluorescence staining. Specifically, the cut bladder tissue sections were frozen in liquid nitrogen, ground in a mortar and pestle to be completely lysed, and homogenized by adding Lysis Buffer [50 mM Tris-HCl (pH 7.4), 150 mM NaCl, 2 mM MgCl2, 0.1% NP40]. The homogenized tissue sections were transferred to a microcentrifuge tube, rock at 4°C for 20 minutes, and then centrifuged at 25,000 × g for 10 minutes. The supernatant was transferred to a new microcentrifuge, the protein concentrations were measured using a BCA kit, and then samples for Western blot were prepared by adding a 1X sample buffer and boiling for 5 minutes. For Western blot, the same amounts of proteins were loaded onto SDS-PAGE, electrophored, and then transferred to a nitrocellulose membrane, reacted with primary antibodies Occludin (Invitrogen), ZO-1 (Invitrogen), ED-1 (Serotec), and β-actin (Sigma), and then blotted with secondary antibodies. In addition, for immunofluorescence staining, 10 µm-thick bladder tissue sections were treated with primary antibodies ZO-1 (Invitrogen), Occludin (Invitrogen), MPO (DAKO), and ED-1 (Serotec), respectively, and reacted according to a manufacturer's protocol, and then color-developed with secondary antibodies (Jackson immunoresearh).

Assay [1] concerns IMQ psoriasis animal model. Briefly: PASI scores (erythema, scaling) in IMQ psoriasis animal model. Particulars: 5 mg/kg intraperitoneally on Day 2, Day 3, Day 4, vs Vehicle group. The class given is in vivo, C57BL/6 mouse. The method, then: Psoriasis caused by excessive production of skin cells was a chronic skin disease associated with various factors, including autoimmune diseases, and its symptoms included red and thickened skin and abnormally occurring scaling. […] Specifically, the back region of a C57BL/6 mouse (male, 18 to 20 g, 8 weeks) (Daehan Biolink, Eumseong, Korea) was shaved to remove hair, and then applied with IMQ cream (83 mg/day) (5%) for consecutive 5 days from Day 0 to Day 4 to induce psoriasis-like skin inflammation, and a normal control mouse (Sham) was applied with Vaseline cream (FIG. 16A).
In order to confirm the effect of YJ102 (Chemical Formula 1), a compound of the present disclosure, on psoriasis, YJ102 dissolved in DMSO, methyl pyrrolidinone, and water (1 : 1.5 : 1) was administered intraperitoneally (5 mg/kg) for a total of 3 days on Day 2, Day 3, and Day 4, and the Vehicle group was administered in the same amount of a solution of DMSO, methyl pyrrolidinone, and water (1 : 1.5 : 1) (FIG. 16A). To assess daily skin changes, PASI scores were used for erythema and scaling. The PASI score was evaluated as a severity scale of 0 to 4, in which 0 meant none, 1 meant mild, 2 meant moderate, 3 meant severe, and 4 meant very severe. (PASI Reference: Yashpal Manchanda, Abhishek De, Sudip Das, and Disha Chakraborty. Disease Assessment in Psoriasis. Indian J Dermatol. 2023 May-Jun; 68 (3): 278-281.)

The subject of a further assay is Raw 264.7. The experiment in a line: proNGF production in LPS-stimulated macrophage cell line. The class given is cell-based. Particulars: Raw 264.7 stimulated with 1 µg/ml of LPS; YJ102 treated 30 minutes before LPS. The method, then:
In order to determine whether YJ102 affected the production of proNGF as a ligand of p75, the expression of proNGF in the bladder was confirmed by RT-PCR, Western blot analysis, and immunofluorescence staining. In addition, for further verification, a macrophage cell line Raw 264.7 (Korea Cell Line Bank, Seoul, Korea) was stimulated with 1 µg/ml of LPS, and the effect of YJ102 on the production of proNGF was investigated. At this time, YJ102 was dissolved in DMSO and treated 30 minutes before LPS treatment.

Setting [2] is: day 1 after spinal cord injury, H&E.
The mark [3] stands for this setting: day 1 after spinal cord injury (SCI 1d), Western blot.

For `CCc1ccc(N(C(=O)COC)c2nc3cc(Cl)ccc3o2)cc1` [YJ102], the “collagen content in the muscle” value in the assay on bladder wall (after spinal cord injury, Masson's trichrome) is listed as “maintained at a level almost similar to that of the normal group”. In the assay on bladder wall (setting [2]), the “thickness of the lamina propria” value was “significantly reduced”, the “thickness of the muscle layer” value is reported as “significantly reduced” and the “thickness of the urothelium layer” value is “significantly reduced”. Also, in the assay on JMJD3, the “demethylation activation of H3K27Me3” value was “significantly inhibited” and the “expression of JMJD3” value is listed as “significantly inhibited”. In addition, the “expression of TRPM7” value with TRPM7 was “inhibited”. In the assay on mTOR pathway, the “activity of S6” value is listed as “inhibiting” and the “activity of p70S6kinase” value is listed as “inhibiting”. Further, in the assay on JAK/STAT3 pathway, the “phosphorylation of JAK2” value is given as “significantly reducing” and the “phosphorylation of STAT3” value was “significantly reducing”. Besides, the “reduction in Occludin in the urothelium” value in the assay on ZO-1 and occludin (after spinal cord injury, immunofluorescence staining) is recorded as “inhibited”. Also, in the assay with ZO-1 and occludin (setting [3]), the “reduction of the amount of Occludin” value is given as “significantly inhibited” and the “reduction of the amount of ZO-1” value was “significantly inhibited”. Further, in assay [1], the “degree of erythema (PASI score)” value was “significantly lower” and the “degree of scaling (PASI score)” value is reported as “significantly lower”. The “mRNA and protein expression of proNGF” value with Raw 264.7 is “significantly inhibited”.
